Test results as given in ChEMBL document CHEMBL4507310, “Data for DCP probe A-1211212” (2021).

What was measured:
[1] = biological target: Serine/threonine-protein kinase PLK4 (Homo sapiens) (UniProt O00444); conditions: Compound concentration 1000.0 nM
[2] = test system: Phosphatidylinositol 4,5-bisphosphate 3-kinase catalytic subunit alpha isoform (Homo sapiens), P42336 [E545A]; conditions: Compound concentration 1000.0 nM
[3] = biological target: Serine/threonine-protein kinase Sgk2 (Homo sapiens) (UniProt Q9HBY8); conditions: Compound concentration 1000.0 nM
[4] = biological target: Serine/threonine-protein kinase 17B (Homo sapiens) (UniProt O94768); conditions: Compound concentration 1000.0 nM
[5] = biological target: Sodium/potassium-transporting ATPase (Sus scrofa) (UniProt P05027+P05024+D2WKD8+D2WKD7+F1ST41); experiment: ATPase (Na+/K+) Eurofins-Cerep enzyme and uptake assay; type: protein-complex assay; conditions: Compound concentration 10.0 uM
[6] = biological target: Ephrin type-A receptor 1 (Homo sapiens) (UniProt P21709); conditions: Compound concentration 1000.0 nM
[7] = biological target: Cyclin-dependent kinase-like 5 (Homo sapiens) (UniProt O76039); conditions: Compound concentration 1000.0 nM
[8] = biological target: Mitogen-activated protein kinase 7 (Homo sapiens) (UniProt Q13164); conditions: Compound concentration 1000.0 nM
[9] = biological target: Serine/threonine-protein kinase PAK 6 (Homo sapiens) (UniProt Q9NQU5); conditions: Compound concentration 1000.0 nM
[10] = biological target: Calcium/calmodulin-dependent protein kinase type 1D (Homo sapiens) (UniProt Q8IU85); conditions: Compound concentration 1000.0 nM
[11] = test system: Mast/stem cell growth factor receptor Kit (Homo sapiens), P10721 [V559D,T670I]; conditions: Compound concentration 1000.0 nM
[12] = biological target: Leucine-rich repeat serine/threonine-protein kinase 2 (Homo sapiens) (UniProt Q5S007); conditions: Compound concentration 1000.0 nM
[13] = biological target: Calcium-dependent protein kinase 1 (Plasmodium falciparum) (UniProt P62344); conditions: Compound concentration 1000.0 nM
[14] = biological target: Acetylcholinesterase (Homo sapiens) (UniProt P22303); experiment: Acetylcholinesterase (h) Eurofins-Cerep enzyme and uptake assay; conditions: Compound concentration 10.0 uM
[15] = biological target: Adenosine receptor A3 (Homo sapiens) (UniProt P0DMS8); experiment: A3 (h) Eurofins-Cerep binding assay; parameters: ligand concentration 0.15 nM; conditions: filed as agonist, Compound concentration 10.0 uM
[16] = biological target: MAP kinase-activated protein kinase 5 (Homo sapiens) (UniProt Q8IW41); conditions: Compound concentration 1000.0 nM
[17] = biological target: Mitogen-activated protein kinase 3 (Homo sapiens) (UniProt P27361); conditions: Compound concentration 1000.0 nM
[18] = biological target: Protein kinase C eta type (Homo sapiens) (UniProt P24723); conditions: Compound concentration 1000.0 nM
[19] = biological target: Myosin-IIIa (Homo sapiens) (UniProt Q8NEV4); conditions: Compound concentration 1000.0 nM
[20] = biological target: Urotensin-2 receptor (Homo sapiens) (UniProt Q9UKP6); experiment: UT (h) Eurofins-Cerep binding assay; parameters: ligand concentration 0.1 nM; conditions: filed as agonist, Compound concentration 10.0 uM
[21] = biological target: Phosphatidylinositol 4-phosphate 3-kinase C2 domain-containing subunit beta (Homo sapiens) (UniProt O00750); conditions: Compound concentration 1000.0 nM
[22] = biological target: T1, Alpha-1B adrenergic receptor (Homo sapiens) (UniProt P35368); conditions: Compound concentration 10.0 uM
T1 sequence (whole entry): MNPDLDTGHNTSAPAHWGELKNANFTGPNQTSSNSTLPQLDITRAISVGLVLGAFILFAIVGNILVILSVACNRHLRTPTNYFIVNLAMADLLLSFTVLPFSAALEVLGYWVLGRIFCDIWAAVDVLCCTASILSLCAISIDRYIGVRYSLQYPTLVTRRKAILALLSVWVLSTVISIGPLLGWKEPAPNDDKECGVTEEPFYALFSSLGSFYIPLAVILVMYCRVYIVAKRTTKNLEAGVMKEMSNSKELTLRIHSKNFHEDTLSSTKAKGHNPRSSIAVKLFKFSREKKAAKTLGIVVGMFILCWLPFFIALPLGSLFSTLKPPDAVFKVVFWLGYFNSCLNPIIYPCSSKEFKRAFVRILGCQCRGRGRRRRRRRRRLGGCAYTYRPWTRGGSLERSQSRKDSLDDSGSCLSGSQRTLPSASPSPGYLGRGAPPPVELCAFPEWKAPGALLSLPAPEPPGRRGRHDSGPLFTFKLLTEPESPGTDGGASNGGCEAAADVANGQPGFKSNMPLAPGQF

[23] = biological target: Cyclin-dependent kinase 15 (Homo sapiens) (UniProt Q96Q40); conditions: Compound concentration 1000.0 nM
[24] = biological target: Serine/threonine-protein kinase WNK2 (Homo sapiens) (UniProt Q9Y3S1); conditions: Compound concentration 1000.0 nM
[25] = biological target: Rhodopsin kinase GRK7 (Homo sapiens) (UniProt Q8WTQ7); conditions: Compound concentration 1000.0 nM
[26] = biological target: Mitogen-activated protein kinase kinase kinase 6 (Homo sapiens) (UniProt O95382); conditions: Compound concentration 1000.0 nM
[27] = biological target: Ribosomal protein S6 kinase alpha-3 (Homo sapiens) (UniProt P51812); conditions: Compound concentration 1000.0 nM
[28] = biological target: Cannabinoid receptor 1 (Homo sapiens) (UniProt P21554); experiment: CB1 (h) Eurofins-Cerep binding assay; parameters: ligand concentration 0.5 nM; conditions: filed as agonist, Compound concentration 10.0 uM
[29] = biological target: Glutamate NMDA receptor (Rattus norvegicus) (UniProt P35439+Q00959+Q00960+Q00961+Q62645+Q8VHN2+Q9R1M7); experiment: NMDA Eurofins-Cerep binding assay; type: protein-complex assay; parameters: ligand concentration 5 nM; conditions: filed as antagonist, Compound concentration 10.0 uM
[30] = biological target: Calcium/calmodulin-dependent protein kinase kinase 1 (Homo sapiens) (UniProt Q8N5S9); conditions: Compound concentration 1000.0 nM
[31] = biological target: Receptor tyrosine-protein kinase erbB-3 (Homo sapiens) (UniProt P21860); conditions: Compound concentration 1000.0 nM
[32] = biological target: Serine/threonine-protein kinase ULK2 (Homo sapiens) (UniProt Q8IYT8); conditions: Compound concentration 1000.0 nM
[33] = biological target: Mitogen-activated protein kinase kinase kinase kinase 1 (Homo sapiens) (UniProt Q92918); conditions: Compound concentration 1000.0 nM
[34] = test system: Epidermal growth factor receptor (Homo sapiens), P00533 [UNDEFINED MUTATION]; conditions: Compound concentration 1000.0 nM
[35] = biological target: Prostaglandin E2 receptor EP2 subtype (Homo sapiens) (UniProt P43116); experiment: EP2 (h) Eurofins-Cerep binding assay; parameters: ligand concentration 3 nM; conditions: filed as agonist, Compound concentration 10.0 uM
[36] = biological target: Calcium/calmodulin-dependent protein kinase kinase 2 (Homo sapiens) (UniProt Q96RR4); conditions: Compound concentration 1000.0 nM
[37] = biological target: Serine/threonine-protein kinase N2 (Homo sapiens) (UniProt Q16513); conditions: Compound concentration 1000.0 nM

Prostaglandin E2 receptor EP2 subtype (Homo sapiens), sequence (P43116 whole entry): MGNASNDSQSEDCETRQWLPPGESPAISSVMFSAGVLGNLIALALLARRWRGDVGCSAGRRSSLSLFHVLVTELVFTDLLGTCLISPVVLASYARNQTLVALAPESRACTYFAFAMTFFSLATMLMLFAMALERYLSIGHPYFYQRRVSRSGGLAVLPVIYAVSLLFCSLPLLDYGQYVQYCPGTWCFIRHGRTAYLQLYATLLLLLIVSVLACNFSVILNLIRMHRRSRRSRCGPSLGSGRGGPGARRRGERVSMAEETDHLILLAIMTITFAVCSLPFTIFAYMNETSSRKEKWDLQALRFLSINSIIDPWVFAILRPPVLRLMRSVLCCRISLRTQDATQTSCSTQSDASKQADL
Ribosomal protein S6 kinase alpha-3 (Homo sapiens), sequence (P51812 whole entry): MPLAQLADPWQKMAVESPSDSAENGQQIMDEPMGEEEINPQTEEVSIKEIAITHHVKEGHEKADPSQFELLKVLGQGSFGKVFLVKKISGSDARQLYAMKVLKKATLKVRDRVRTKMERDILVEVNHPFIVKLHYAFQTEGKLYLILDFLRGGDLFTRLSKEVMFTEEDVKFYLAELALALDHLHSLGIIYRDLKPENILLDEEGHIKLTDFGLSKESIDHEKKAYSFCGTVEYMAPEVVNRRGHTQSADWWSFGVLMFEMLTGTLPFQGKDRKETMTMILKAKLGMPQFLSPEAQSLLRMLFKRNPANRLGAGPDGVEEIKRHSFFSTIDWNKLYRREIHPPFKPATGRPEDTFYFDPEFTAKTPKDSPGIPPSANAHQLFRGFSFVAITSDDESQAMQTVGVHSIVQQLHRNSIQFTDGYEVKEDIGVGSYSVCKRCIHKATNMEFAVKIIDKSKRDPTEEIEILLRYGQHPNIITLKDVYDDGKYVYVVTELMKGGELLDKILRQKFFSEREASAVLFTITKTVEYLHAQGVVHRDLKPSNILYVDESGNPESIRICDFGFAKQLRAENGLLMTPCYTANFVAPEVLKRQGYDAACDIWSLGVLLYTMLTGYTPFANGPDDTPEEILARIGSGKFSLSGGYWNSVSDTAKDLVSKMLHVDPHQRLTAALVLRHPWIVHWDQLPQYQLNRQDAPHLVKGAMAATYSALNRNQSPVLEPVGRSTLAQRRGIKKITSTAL
Mitogen-activated protein kinase kinase kinase 6 (Homo sapiens), sequence (O95382 whole entry): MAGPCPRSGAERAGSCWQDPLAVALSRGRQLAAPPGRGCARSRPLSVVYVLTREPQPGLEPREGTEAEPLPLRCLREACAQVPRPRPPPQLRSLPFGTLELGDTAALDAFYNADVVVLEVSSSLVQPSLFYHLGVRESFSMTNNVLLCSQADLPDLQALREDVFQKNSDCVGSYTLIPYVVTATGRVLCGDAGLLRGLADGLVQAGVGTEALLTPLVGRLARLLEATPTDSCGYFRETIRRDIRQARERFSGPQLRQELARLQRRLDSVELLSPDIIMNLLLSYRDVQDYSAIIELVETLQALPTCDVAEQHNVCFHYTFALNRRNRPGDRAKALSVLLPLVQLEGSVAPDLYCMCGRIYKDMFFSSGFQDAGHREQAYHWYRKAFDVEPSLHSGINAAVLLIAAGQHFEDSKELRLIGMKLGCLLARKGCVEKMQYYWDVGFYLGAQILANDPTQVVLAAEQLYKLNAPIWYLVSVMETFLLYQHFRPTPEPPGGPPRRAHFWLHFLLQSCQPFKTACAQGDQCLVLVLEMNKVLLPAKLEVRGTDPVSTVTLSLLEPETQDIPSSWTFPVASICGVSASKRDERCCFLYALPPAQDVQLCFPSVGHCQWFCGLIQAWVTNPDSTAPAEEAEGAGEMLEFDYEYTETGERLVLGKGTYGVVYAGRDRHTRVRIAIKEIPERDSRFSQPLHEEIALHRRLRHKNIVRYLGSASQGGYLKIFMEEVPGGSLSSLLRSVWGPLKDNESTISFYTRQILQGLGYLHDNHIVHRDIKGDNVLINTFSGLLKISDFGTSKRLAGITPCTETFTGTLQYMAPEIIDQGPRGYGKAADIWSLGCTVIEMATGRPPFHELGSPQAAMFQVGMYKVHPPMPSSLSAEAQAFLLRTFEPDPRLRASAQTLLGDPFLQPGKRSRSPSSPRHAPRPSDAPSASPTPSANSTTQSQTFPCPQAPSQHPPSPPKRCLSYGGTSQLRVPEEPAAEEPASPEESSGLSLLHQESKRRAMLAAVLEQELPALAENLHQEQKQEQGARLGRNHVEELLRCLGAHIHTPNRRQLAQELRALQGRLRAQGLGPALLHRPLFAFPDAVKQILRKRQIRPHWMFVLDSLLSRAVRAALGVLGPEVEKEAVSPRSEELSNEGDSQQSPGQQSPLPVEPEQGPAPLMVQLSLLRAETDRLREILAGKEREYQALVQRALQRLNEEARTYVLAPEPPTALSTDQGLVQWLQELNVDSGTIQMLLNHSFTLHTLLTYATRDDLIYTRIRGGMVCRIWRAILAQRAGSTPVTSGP
Cyclin-dependent kinase 15 (Homo sapiens), sequence (Q96Q40 whole entry): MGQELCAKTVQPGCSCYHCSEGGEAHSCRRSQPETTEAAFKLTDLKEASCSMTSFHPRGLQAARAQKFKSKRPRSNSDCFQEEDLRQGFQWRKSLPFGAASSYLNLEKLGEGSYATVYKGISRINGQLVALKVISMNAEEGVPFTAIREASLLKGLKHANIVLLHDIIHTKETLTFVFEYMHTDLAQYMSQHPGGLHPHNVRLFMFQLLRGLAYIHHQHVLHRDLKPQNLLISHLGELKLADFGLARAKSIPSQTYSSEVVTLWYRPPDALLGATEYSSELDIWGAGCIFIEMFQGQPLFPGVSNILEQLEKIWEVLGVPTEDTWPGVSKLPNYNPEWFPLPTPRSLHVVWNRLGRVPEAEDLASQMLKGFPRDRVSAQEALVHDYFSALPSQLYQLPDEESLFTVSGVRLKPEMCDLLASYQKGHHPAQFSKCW
Calcium/calmodulin-dependent protein kinase type 1D (Homo sapiens), sequence (Q8IU85 whole entry, looked up): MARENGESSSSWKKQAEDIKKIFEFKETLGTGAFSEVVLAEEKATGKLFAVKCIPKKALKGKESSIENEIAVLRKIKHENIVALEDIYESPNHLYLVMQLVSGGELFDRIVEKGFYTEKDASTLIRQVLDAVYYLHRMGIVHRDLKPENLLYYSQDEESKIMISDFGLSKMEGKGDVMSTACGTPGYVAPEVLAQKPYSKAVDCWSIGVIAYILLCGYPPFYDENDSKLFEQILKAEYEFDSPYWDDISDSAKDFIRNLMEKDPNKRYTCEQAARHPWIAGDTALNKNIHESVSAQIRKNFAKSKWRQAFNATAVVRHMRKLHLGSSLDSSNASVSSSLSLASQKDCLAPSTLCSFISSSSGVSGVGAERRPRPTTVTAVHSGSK
Cyclin-dependent kinase-like 5 (Homo sapiens), sequence (O76039 whole entry): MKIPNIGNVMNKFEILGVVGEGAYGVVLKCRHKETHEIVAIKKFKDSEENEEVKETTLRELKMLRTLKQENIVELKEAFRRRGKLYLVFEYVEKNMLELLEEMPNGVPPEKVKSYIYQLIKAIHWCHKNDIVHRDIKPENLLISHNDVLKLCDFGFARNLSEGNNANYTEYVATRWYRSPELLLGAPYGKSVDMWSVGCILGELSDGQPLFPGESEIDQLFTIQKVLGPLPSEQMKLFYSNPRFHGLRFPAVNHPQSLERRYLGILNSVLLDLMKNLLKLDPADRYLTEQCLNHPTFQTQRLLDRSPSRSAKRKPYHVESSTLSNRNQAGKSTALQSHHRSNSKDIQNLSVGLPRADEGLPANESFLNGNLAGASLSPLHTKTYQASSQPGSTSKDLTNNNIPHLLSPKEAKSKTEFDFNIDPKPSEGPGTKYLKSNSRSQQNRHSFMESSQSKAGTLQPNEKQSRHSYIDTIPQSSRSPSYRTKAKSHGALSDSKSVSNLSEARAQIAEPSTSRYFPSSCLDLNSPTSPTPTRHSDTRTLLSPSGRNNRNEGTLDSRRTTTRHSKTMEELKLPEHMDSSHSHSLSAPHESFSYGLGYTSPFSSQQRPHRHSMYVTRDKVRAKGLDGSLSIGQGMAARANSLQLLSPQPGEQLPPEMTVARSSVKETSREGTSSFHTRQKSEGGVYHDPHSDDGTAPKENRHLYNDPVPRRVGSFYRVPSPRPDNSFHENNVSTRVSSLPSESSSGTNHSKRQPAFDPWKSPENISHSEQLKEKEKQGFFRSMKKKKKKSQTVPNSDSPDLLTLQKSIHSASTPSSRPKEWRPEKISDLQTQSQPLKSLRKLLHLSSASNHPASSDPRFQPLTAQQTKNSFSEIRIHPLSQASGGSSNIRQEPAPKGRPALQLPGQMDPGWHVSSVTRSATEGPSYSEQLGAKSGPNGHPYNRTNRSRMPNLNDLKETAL
Cannabinoid receptor 1 (Homo sapiens), sequence (P21554 whole entry): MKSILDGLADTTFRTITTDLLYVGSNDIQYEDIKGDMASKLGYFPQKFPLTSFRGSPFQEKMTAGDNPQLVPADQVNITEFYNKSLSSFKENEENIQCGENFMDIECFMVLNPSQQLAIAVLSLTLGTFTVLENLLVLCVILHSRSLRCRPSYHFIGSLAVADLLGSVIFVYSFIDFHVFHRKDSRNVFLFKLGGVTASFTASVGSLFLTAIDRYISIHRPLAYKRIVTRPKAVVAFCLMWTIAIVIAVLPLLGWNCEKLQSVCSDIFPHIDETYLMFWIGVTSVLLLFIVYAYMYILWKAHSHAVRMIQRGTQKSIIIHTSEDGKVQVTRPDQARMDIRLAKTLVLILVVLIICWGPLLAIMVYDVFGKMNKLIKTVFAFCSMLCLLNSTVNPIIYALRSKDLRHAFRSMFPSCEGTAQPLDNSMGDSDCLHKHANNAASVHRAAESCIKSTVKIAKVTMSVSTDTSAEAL
Mitogen-activated protein kinase 3 (Homo sapiens), sequence (P27361 whole entry): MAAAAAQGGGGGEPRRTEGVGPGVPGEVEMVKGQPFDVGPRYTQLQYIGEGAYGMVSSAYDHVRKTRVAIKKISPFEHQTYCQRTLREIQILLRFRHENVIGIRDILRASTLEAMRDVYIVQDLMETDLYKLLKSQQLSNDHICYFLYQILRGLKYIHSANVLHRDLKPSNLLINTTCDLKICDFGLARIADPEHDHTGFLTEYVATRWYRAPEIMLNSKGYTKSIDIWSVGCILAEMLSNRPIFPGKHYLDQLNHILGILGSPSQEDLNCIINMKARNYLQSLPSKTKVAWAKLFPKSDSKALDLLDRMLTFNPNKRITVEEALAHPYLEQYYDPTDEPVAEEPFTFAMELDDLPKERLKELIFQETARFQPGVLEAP

Compound | residual activity [1] [%] | residual activity [2] [%] | residual activity [3] [%] | residual activity [4] [%] | % Inhibition of Control Values (Mean n=2) [5] [%] | residual activity [6] [%] | residual activity [7] [%] | residual activity [8] [%] | residual activity [9] [%] | residual activity [10] [%] | residual activity [11] [%] | residual activity [12] [%] | residual activity [13] [%] | % Inhibition of Control Values (Mean n=2) [14] [%] | % Inhibition of Control Specific Binding (Mean n=2) [15] [%] | residual activity [16] [%] | residual activity [17] [%] | residual activity [18] [%] | residual activity [19] [%] | % Inhibition of Control Specific Binding (Mean n=2) [20] [%] | also measured
O=C(NS(=O)(=O)c1ccc(NCC2CCOCC2)c([N+](=O)[O-])c1)c1ccc(N2CCN(Cc3ccc(C(F)(F)F)cc3-c3ccc(Cl)cc3)CC2)cc1Oc1cnc2[nH]ccc2c1 [A-1210227] | 98 | 86 | 100 | 100 | 19.7 | 98 | 74 | 100 | 73 | 92 | 100 | 100 | 82 | 11 | 6.5 | 81 | 98 | 100 | 85 | 2.7 | residual activity [21]: 83%; inhibition [22]: 12.3%; residual activity [23]: 100%; residual activity [24]: 75%; residual activity [25]: 78%; residual activity [26]: 80%; residual activity [27]: 100%; % Inhibition of Control Specific Binding (Mean n=2) [28]: -13.7%; % Inhibition of Control Specific Binding (Mean n=2) [29]: -7.6%; residual activity [30]: 92%; residual activity [31]: 100%; residual activity [32]: 100%; residual activity [33]: 98%; residual activity [34]: 100%; % Inhibition of Control Specific Binding (Mean n=2) [35]: 24%; residual activity [36]: 99%; residual activity [37]: 93%
CO[C@H]1CC[C@H](CNc2ccc(S(=O)(=O)NC(=O)c3ccc(N4CCN(CC5=C(c6ccc(Cl)cc6)CC(C)(C)CC5)CC4)cc3Oc3cnc4[nH]ccc4c3)cc2[N+](=O)[O-])CC1 [A-1211212] | 100 | 67 | 91 | 91 | 5.4 | 100 | 74 | 88 | 75 | 80 | 88 | 100 | 80 | 3.2 | 13.3 | 82 | 80 | 60 | 82 | 8.6 | residual activity [21]: 92%; inhibition [22]: 1.2%; residual activity [23]: 100%; residual activity [24]: 76%; residual activity [25]: 100%; residual activity [26]: 93%; residual activity [27]: 100%; % Inhibition of Control Specific Binding (Mean n=2) [28]: -6.4%; % Inhibition of Control Specific Binding (Mean n=2) [29]: -3.3%; residual activity [30]: 83%; residual activity [31]: 100%; residual activity [32]: 100%; residual activity [33]: 69%; residual activity [34]: 100%; % Inhibition of Control Specific Binding (Mean n=2) [35]: 17.3%; residual activity [36]: 81%; residual activity [37]: 97%
